Counter-ions that a name gives are not always drawn.
Assay: in vitro release (dissolution) of active ingredient from microcapsules in strongly acidic (pH 1) and weakly acidic (pH 4.5) medium
Type: physicochemical
Details: for release of active ingredient from microcapsules (in words): strongly acidic and weakly acidic medium (pH 1 and 4.5)
Excerpt: FIG. 1 is a graph depicting percent release as a function of time of an active ingredient from microcapsules prepared by spray solidification in carnauba wax.
FIGS. 2a and 2b are two graphs depicting percent release as a function of time of an active ingredient in, respectively, the hydrate and anhydrate forms.
FIGS. 3a and 3b are two graphs depicting percent release as a function of time of an active ingredient in, respectively, the hydrate and anhydrate forms.
FIGS. 4a and 4b are two graphs depicting percent release as a function of time of an active ingredient in, respectively, the hydrate and anhydrate forms.
FIGS. 5a and 5b are two graphs depicting percent release as a function of time of an active ingredient in, respectively, the hydrate and anhydrate forms.

Compound	release of active ingredient from microcapsules (in words)	release of active ingredient from wax-embedded microcapsules (in words) (embedded by method of EP-A-273,890 (carnauba wax, beeswax, ethylcellulose), FIG. 1, spray solidification in carnauba wax)	release of active ingredient from microcapsules (in words) (listed as ciprofloxacin betaine)
O=C(O)c1cn(C2CC2)c2cc(N3CCNCC3)c(F)cc2c1=O [ciprofloxacin HCl]	delayed	–	–
O=C(O)c1cn(C2CC2)c2cc(N3CCNCC3)c(F)cc2c1=O [ciprofloxacin]	–	does not lead, however, to the required rapid release of active ingredient	a rapid release of active ingredient is guaranteed
